Like-named read-outs stand apart in the source and are kept apart here. One block for each compound: values may come before it.
Legend:
DC-SIGN+ Raji cells = assay: Liposome binding assay, flow cytometry; format: cell-based
Method: (§1) If not stated otherwise, all media and supplements for cell culture experiments were purchased from Thermo Fisher Scientific. Raji, THP-1 and U937 cell lines (ATCC) were grown in complete growth medium containing RPMI1640 medium, 10% FCS, 100 U mL-1 Penicillin-Streptomycin and GlutaMax at 37°C and 5% CO2. Cells were monitored with a light microscope (IT40 5PH, VWR) and subcultured every 2 -3 days to maintain cell densities ranging from of 0.5 - 3 x 10^6 cells per mL.
(§2) CLR-expressing cell lines were generated as described before.4,27 Briefly, DC-SIGN, Langerin, murine Langerin and murine Dectin-1 cDNAs (Sinobiologicals) were cloned into a lentiviral BIC-PGK-Zeo-T2a-mAmetrine:EF1A construct by Gibson assembly (NEB) according to the manufacturer’s protocol. HEK293 cells were transfected with the lentiviral vector together with third-generation packaging vectors and viral particles were then used for transduction of Raji cells. In analogy, DC-SIGN and Langerin-expressing THP-1 and U937 cell lines were generated by lentiviral transduction.
(§3) Liposome binding assay – flow cytometry
(§4) Liposome binding to CLR-expressing cells was assayed as previously described.27 Briefly, 0.05 x 10^6 cells were plated in transparent conical-bottom 96 well microtiter plates (Nunc) in a volume of 100 µL medium. Plates were centrifuged at 500 x g for 3 minutes, supernatant was aspirated, and cells were resuspended in 100 µL medium, containing 16 µM liposomes. In control experiments, cells were incubated with medium containing 10 mM EDTA or 50 µg mL-1 mannan for 15 min at 4 °C, prior to liposome application. After 1 h incubation at 4 °C in the dark, cells were centrifuged at 500 x g for 3 min and the supernatant was discarded. Cells wer e resuspended in 200 µL ice-cold medium and analyzed by detecting the co-formulated Alexa 647 dye via flow cytometry with a 654 nm laser and a 670/14 nm filter (Attune Nxt, life technologies).
Flow cytometry data was processed using FlowJo (BD Bioscience). Mean fluorescence intensity (MFI) was further analyzed and plotted using GraphPad Prism (GraphPad […]
To monitor allosteric activation of DC-SIGN by glycomimetic 48, the described protocol was adjusted as follows. DC-SIGN+ Raji cells were plated in transparent conical-bottom 96 well microtiter plates (Nunc) in a volume of 100 µL medium. Plates were centrifuged at 500 x g for 3 minutes, supernatant was aspirated, and cell were resuspended in 25 µL medium supplemented with varying concentrations of monovalent carbohydrates or 0.5 mM 48. Homomultivalent liposomes carrying either natural carbohydrates or 48 were added at a final concentration of 16 µM. Liposome binding was subsequently quantified by measuring Alexa 647 fluorescence in flow cytometry experiments. Statistical significance by means of a student’s t-test was assessed based on averaged normalized MFIs from four biological replicates each conducted as technical duplicates. A p-value < 0.05 was set as significance cut-off.

Langerin ECD [1] = target: T1, Langerin ECD (Homo sapiens, UniProt Q9UJ71); assay: 19F NMR reporter displacement assay (RDA), KI determination by titration; format: binding; conditions: for Ki: competitive titration, 0.1 mM reporter ligand 49, 10% DMSO
T1 construct: the trimeric Langerin extracellular domain (ECD) was; made in house; host or cells: E. coli BL21* (DE3)
Method: (§5) via SDS PAGE. The protein solution was aliquoted, snap frozen in liquid N2 and stored at -80°C until further usage.
(§6) NMR binding experiments – Langerin
(§7) General remarks. 19F R2-filtered NMR experiments were conducted on a PremiumCompact 600 MHz spectrometer (Agilent). Spectra were processed in MestreNova (Mestrelab Research) and data analysis was performed with OriginPro (OriginLab) . Experiments with the Langerin ECD were perf ormed at a receptor concentration of 50 μM in 25 mM Tris with 10% D 2O, 150 mM NaCl and 5 mM CaCl 2 […]
(§8) at pH 7.8 and 25°C. […]
CaCl2 at pH 7.0 and 25°C. TFA served as an internal reference at a concentration of 50 μM. Apparent transverse relaxation rates R 2,obs for the reporter ligand were determined using the CPMG pulse sequence as previously published. 6,30,31 […]
KI determination. KI values were determined as previously published for Langerin.6 Briefly, titration experiments were conducted at a concentration of 0.1 mM of reporter ligand 49 at five competitor concentrations [I]T (Table S5). […]

DC-SIGN ECD = target: T2, DC-SIGN ECD (Homo sapiens, UniProt Q9NNX6); assay: 19F NMR reporter displacement assay transferred to DC-SIGN ECD; format: binding; conditions: 0.1 mM reporter 49; for 48 estimated, receptor precipitation above 1 mM
T2 construct: DC-SIGN extracellular domain (ECD); made in house; host or cells: E. coli BL21(DE3), pET30b; gene from GenScript
T2 sequence (Q9NNX6 59-404 limits assumed): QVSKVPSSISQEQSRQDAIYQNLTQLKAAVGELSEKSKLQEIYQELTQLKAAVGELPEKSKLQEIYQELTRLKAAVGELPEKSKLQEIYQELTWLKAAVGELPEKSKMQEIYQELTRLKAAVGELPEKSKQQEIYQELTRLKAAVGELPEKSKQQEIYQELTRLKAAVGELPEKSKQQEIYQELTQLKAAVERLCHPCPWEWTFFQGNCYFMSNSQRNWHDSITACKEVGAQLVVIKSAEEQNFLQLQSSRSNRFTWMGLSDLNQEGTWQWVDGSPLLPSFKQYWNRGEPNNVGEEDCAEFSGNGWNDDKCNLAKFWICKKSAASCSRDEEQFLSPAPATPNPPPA
Method: KI values were determined as previously described for Langerin and the DC-SIGN CRD.6 Briefly, competitive binding experiments were conducted with 49 at a concentration of 0.1 mM and varying competitor concentrations [I]T. KI and [P]T values were derived from Equation 8 in a two-parameter fit.
𝜃 = 𝑐𝑜𝑠−1 ( ) ,𝑎 = 𝐾𝐷 + 𝐾𝐼 + [𝐿]𝑇 + [𝐼]𝑇 − [𝑃]𝑇
𝑏 = ([𝐼]𝑇 − [𝑃]𝑇)𝐾𝐷 + ([𝐿]𝑇 − [𝑃]𝑇)𝐾𝐷 + 𝐾𝐼𝐾𝐷, 𝑐 = −𝐾𝐼𝐾𝐷[𝑃]𝑇
For KD determination from 19F NMR CSPs, samples and measurements were set up as described for 19F R2-filtered NMR but at a single relaxation time T = 0 s. CSP 19F, T were calculated from the chemical shift of the 19F resonance of 48 in the presence of protein δT at increasing ligand concentrations and the chemical shift in absence of protein δf at a concentration of 1 mM via Equation 4.
The KD value was calculated from CSP19F, T values in a two -parameter fit using Equation 10, using a fixed protein concentration [P] T and a CSP19F of 0 ppm as a lower bound. CSP19F,b corresponds to the top asymptote and was kept variable. As in Equation 9, pb represents the fraction of bound protein.

Langerin CRD [2] = target: T3, Langerin CRD (Homo sapiens, UniProt Q9UJ71); design: method as in earlier work; conditions: previously published values; ref 6 (SI); cited from earlier work
T3 construct: Langerin carbohydrate recognition domains (CRDs) were expressed insolubly in; made in house; host or cells: E. coli BL21* (DE3)

Langerin ECD [3] = target: T1, Langerin ECD; assay: 19F R2-filtered NMR screening of the mannoside library (reporter displacement, single competitor concentration); format: binding
Method: as §5, §6, §7, §8
CaCl2 at pH 7.0 and 25°C. TFA served as an internal reference at a concentration of 50 μM. Apparent transverse relaxation rates R 2,obs for the reporter ligand were determined using the CPMG pulse sequence as previously published. 6,30,31 Screening of mannoside library . Estimated affinities KI,est were determined in competitive binding experiments at 0.1 mM of reporter ligand 49 at 0.1 mM using the Langerin ECD at a single competitor concentration as previously described.6 Here, receptor concentrations [P]T values were directly calculated from R2,max, the data point at 0.1 mM 49 in absence of competitor. Subsequently, KI values were estimated in a one parameter fit. The screening was conducted in presence of 0% to 10% DMSO at mannoside concentrations between 0.1 and 10 mM. […]

Langerin CRD [4] = target: T3, Langerin CRD; assay: 15N HSQC NMR titration, KD determination; format: binding; conditions: 10% DMSO
Method: ppm. The acquisition time tacq was set to 2.0 s and the DPFGSE pulse sequence was utilized for solvent suppression.33 Receptor resonances were suppressed using a T1,rho filter at a relaxation time τ of 35 ms.
Epitope mapping. The binding epitope for 43 was determined at a concentration of 500 µM. For each spectrum 512 scans were recorded. The relaxation delay d 1 was set to 6 s and spectra were recorded at 5 different saturation time s tsat varying from 0.25 to 6.00 s. Equation 1 served to derive the STD effect STD for each analyzed resonance from the corresponding on - and off-resonance spectra.34 I0 represents the integral of a resonance in the off-resonance spectrum and Isat represents the integral of a resonance in the on-resonance spectrum.
The apparent saturation rate k sat and the maximal STD effect STDmax were derived from Equation 2 in a two-parameter fit.35 Standard errors were derived directly from the fitting procedures. These parameters were used to calculate the initial slope of the STD build-up curves STD’0 via Equation 3. STD’0 values were normalized and mapped on the corresponding ligand structure. Only resonances for which at least part of a multiplet was isolated were considered for the epitope mapping.
STD = STDmax(1 − eksattsat)
General remarks. 15N HSQC NMR experiments were conducted on an Ascend 700 MHz spectrometer (Bruker).36 Spectra were processed in NMRPipe.37 Data analysis was performed using CCPN Analysis, MatLab (MathWorks) and OriginPro.38 […]
KD determination. KD values were determined in titration experiments at six ligand concentrations [L]T. Samples were prepared via serial dilution. Chemical shift perturbations CSPs for Langerin CRD resonances in the fast or fast-to-intermediate exchange regime observed upon titration with ligand were calculated as previously described via Equation 4.40
A standard deviation σ of 0.02 ppm was previously determined for the measurement of chemical shifts in 15N HSQC NMR experiments with the Langerin CRD. […]

Langerin+ Raji cells = assay: Liposome binding assay, flow cytometry; format: cell-based
Method: as §1, §2, §3, §4
(§9) Flow cytometry data was processed using FlowJo (BD Bioscience). Mean fluorescence

[5] = test system: murine Dectin-1-expressing Raji cells; assay: Liposome binding assay, flow cytometry; format: cell-based
Method: as §1, §2, §3, §4, §9

[6] = test system: murine Langerin-expressing Raji cells; assay: Liposome binding assay, flow cytometry; format: cell-based
Method: as §1, §2, §3, §4, §9

[7] = calculated utilizing the KI value determined for 45
[8] = calculated utilizing the KI value determined for 46

T1 sequence (Q9UJ71 65-328 limits assumed): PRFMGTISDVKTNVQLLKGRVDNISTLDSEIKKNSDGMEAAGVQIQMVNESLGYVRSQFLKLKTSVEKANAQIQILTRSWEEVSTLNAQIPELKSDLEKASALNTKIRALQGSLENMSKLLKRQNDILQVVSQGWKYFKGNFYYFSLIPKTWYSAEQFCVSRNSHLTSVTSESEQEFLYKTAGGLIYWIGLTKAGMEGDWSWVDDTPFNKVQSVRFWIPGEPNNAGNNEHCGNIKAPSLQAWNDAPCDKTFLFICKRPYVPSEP
T3 sequence (Q9UJ71 202-320 limits assumed): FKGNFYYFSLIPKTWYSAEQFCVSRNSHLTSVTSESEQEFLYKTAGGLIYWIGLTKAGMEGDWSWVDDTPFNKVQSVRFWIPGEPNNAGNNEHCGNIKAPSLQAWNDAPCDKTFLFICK

- effect of soluble compound on binding of 48 liposomes (DC-SIGN+ Raji cells; soluble Fuc, liposomes with 1.26 mol % 48, p > 0.05, n = 4): did not increase
SMILES: C[C@H](O)[C@@H](O)[C@@H](O)[C@H](O)C=O [Fuc, fucose, reference compound]

- Relative potency (Langerin ECD [1]; [7]): 2.2
- Ki (DC-SIGN ECD): 2400 ± 800 µM
SMILES: OC[C@H]1OC(O)[C@@H](O)[C@@H](O)[C@@H]1O (stereo partly shown) [Man, mannose, reference compound]
- Kd (Langerin CRD [2]): 5800 ± 300 µM

- potency estimated from few doses (Langerin ECD [3]; estimated at a single competitor concentration, 0.1 mM reporter ligand 49, 0% to 10% DMSO, read-out: KI,est): 200 µM
- affinity increase over reference molecule 1 (Langerin ECD [3]; from KI,est): 45 fold
- Relative potency (Langerin ECD [1]; [7]): 44
- Relative potency (Langerin ECD [1]; [8]): 57
- Ki (Langerin ECD [1]): 230 ± 30 µM
- Kd (Langerin CRD [4]): 500 ± 200 µM
SMILES: O=C(O)c1ccc(-c2ccc(O[C@H]3O[C@H](CO)[C@@H](O)[C@H](O)[C@@H]3O)c(C(F)(F)F)c2)cc1 [compound 9]

SMILES: NCCS(=O)(=O)NC[C@H]1O[C@H](Oc2ccc(-c3ccc(C(=O)O)cc3)cc2C(F)(F)F)[C@@H](O)[C@@H](O)[C@@H]1O [compound 42]
- binding of homomultivalent liposomes decorated with 2 mol% 42 (DC-SIGN+ Raji cells; 2 mol%, formulations not long-term stable, unspecific binding): binding preference towards DC-SIGN
- binding of homomultivalent liposomes decorated with 2 mol% 42 (Langerin+ Raji cells): negligible
- binding of homomultivalent liposomes decorated with 2 mol% 42 [5]: negligible
- binding of homomultivalent liposomes decorated with 2 mol% 42 [6]: negligible

- Relative potency (Langerin ECD [1]; [7]): 40
- Ki (Langerin ECD [1]): 250 ± 70 µM
- affinity increase over Man reference 45 (Langerin ECD [1]; from KI): 40 fold
- Kd (Langerin CRD [4]): 460 ± 90 µM
SMILES: CC(=O)NCCS(=O)(=O)NC[C@H]1O[C@H](Oc2ccc(-c3ccc(C(=O)O)cc3)cc2C(F)(F)F)[C@@H](O)[C@@H](O)[C@@H]1O [compound 43]

- Relative potency (Langerin ECD [1]; [7]): 1.0
SMILES: CC(=O)NCCO[C@H]1O[C@H](CO)[C@@H](O)[C@H](O)[C@@H]1O [compound 45, reference compound]

- Relative potency (Langerin ECD [1]; [8]): 1.0
- Ki (Langerin ECD [1]): 13000 ± 3000 µM
- Kd (Langerin CRD [4]): 7000 ± 2000 µM
SMILES: COC1OC(CO)C(O)C(O)C1O (stereo not shown) [compound 46, reference compound]
